Test results as given in ChEMBL document CHEMBL3414426, “Xanthone analogues as potent modulators of intestinal P-glycoprotein” (Eur J Med Chem, 2015).
Blank lines part the entries; values can stand above or below the molecule they belong to. Activity calls are given as the source filed them. No cut-off for these calls is given here.

How the values were obtained:
NCI/ADR-RES = experiment: Effect on P-glycoprotein expression in human MCF7/ADR cells at 100 uM after 2 hrs by Western blot analysis; format: functional, cell-based
[1] = Initial drug concentration in Sprague-Dawley rat blood at 5 mg/kg, iv; format: ADME, organism-based; design: dose 5 mg/kg, route intravenous
[2] = AUC (0 to t) in Sprague-Dawley rat at 5 mg/kg, iv; format: ADME, organism-based; design: dose 5 mg/kg, route intravenous; conditions: plasma
[3] = Elimination half life in Sprague-Dawley rat at 5 mg/kg, iv; format: ADME, organism-based; design: dose 5 mg/kg, route intravenous; conditions: in vivo, read-out: beta t1/2 (converted)
[4] = Elimination rate constant in Sprague-Dawley rat at 5 mg/kg, iv; format: ADME, organism-based; design: dose 5 mg/kg, route intravenous; conditions: in vivo
Rattus norvegicus = experiment: Absolute bioavailability in Sprague-Dawley rat at 5 mg/kg, iv; format: ADME, organism-based; conditions: in vivo
[5] = Cmax in Sprague-Dawley rat at 15 mg/kg, po; format: ADME, organism-based; design: dose 15 mg/kg, route oral; conditions: in vivo
[6] = Tmax in Sprague-Dawley rat at 15 mg/kg, po; format: ADME, organism-based; design: dose 15 mg/kg, route oral; conditions: in vivo
[7] = AUC (0 to t) in Sprague-Dawley rat at 15 mg/kg, po; format: ADME, organism-based; design: dose 15 mg/kg, route oral; conditions: plasma
[8] = Elimination half life in Sprague-Dawley rat at 15 mg/kg, po; format: ADME, organism-based; design: dose 15 mg/kg, route oral; conditions: in vivo, read-out: beta t1/2 (converted)
[9] = Elimination rate constant in Sprague-Dawley rat at 15 mg/kg, po; format: ADME, organism-based; design: dose 15 mg/kg, route oral; conditions: in vivo
[10] = Absolute bioavailability in Sprague-Dawley rat at 15 mg/kg, po; format: ADME, organism-based; conditions: in vivo
A549 [11] = experiment: Anticancer activity against human A549 cells xenografted in BALB/c athymic nude male mouse assessed as tumor growth inhibition rate at 5 mg/kg, po in presence of 40 mg/kg, po PTX administered on day 1, 5, 9 and 13 post tumor implantation; format: functional
Mus musculus [12] = experiment: Toxicity in human A549 cells xenografted in BALB/c athymic nude male mouse assessed as maximum weight loss at 5 mg/kg, po in presence of 40 mg/kg, po PTX administered on day 1, 5, 9 and 13 post tumor implantation; format: organism-based; conditions: in vivo
A549 [13] = experiment: Anticancer activity against human A549 cells xenografted in BALB/c athymic nude male mouse assessed as mouse tumor growth inhibition rate at 10 mg/kg, po in presence of 40 mg/kg, po PTX administered on day 1, 5, 9 and 13 post tumor implantation; format: functional
Mus musculus [14] = experiment: Toxicity in human A549 cells xenografted in BALB/c athymic nude male mouse assessed as maximum weight loss at 10 mg/kg, po in presence of 40 mg/kg, po PTX administered on day 1, 5, 9 and 13 post tumor implantation; format: organism-based; conditions: in vivo
A549 [15] = experiment: Anticancer activity against human A549 cells xenografted in BALB/c athymic nude male mouse assessed as mouse survival rate at 5 mg/kg, po in presence of 40 mg/kg, po PTX administered on day 1, 5, 9 and 13 post tumor implantation; format: functional
A549 [16] = experiment: Anticancer activity against human A549 cells xenografted in BALB/c athymic nude male mouse assessed as mouse survival rate at 10 mg/kg, po in presence of 40 mg/kg, po PTX administered on day 1, 5, 9 and 13 post tumor implantation; format: functional
[17] = target: T1, ATP-dependent translocase ABCB1 (Homo sapiens, UniProt P08183); experiment: Inhibition of P-glycoprotein in human MCF7/ADR cells assessed as daunomycin IC50 at 100 uM after 2 hrs; format: cell-based; conditions: nci/adr-res
T1 sequence (P08183 whole entry): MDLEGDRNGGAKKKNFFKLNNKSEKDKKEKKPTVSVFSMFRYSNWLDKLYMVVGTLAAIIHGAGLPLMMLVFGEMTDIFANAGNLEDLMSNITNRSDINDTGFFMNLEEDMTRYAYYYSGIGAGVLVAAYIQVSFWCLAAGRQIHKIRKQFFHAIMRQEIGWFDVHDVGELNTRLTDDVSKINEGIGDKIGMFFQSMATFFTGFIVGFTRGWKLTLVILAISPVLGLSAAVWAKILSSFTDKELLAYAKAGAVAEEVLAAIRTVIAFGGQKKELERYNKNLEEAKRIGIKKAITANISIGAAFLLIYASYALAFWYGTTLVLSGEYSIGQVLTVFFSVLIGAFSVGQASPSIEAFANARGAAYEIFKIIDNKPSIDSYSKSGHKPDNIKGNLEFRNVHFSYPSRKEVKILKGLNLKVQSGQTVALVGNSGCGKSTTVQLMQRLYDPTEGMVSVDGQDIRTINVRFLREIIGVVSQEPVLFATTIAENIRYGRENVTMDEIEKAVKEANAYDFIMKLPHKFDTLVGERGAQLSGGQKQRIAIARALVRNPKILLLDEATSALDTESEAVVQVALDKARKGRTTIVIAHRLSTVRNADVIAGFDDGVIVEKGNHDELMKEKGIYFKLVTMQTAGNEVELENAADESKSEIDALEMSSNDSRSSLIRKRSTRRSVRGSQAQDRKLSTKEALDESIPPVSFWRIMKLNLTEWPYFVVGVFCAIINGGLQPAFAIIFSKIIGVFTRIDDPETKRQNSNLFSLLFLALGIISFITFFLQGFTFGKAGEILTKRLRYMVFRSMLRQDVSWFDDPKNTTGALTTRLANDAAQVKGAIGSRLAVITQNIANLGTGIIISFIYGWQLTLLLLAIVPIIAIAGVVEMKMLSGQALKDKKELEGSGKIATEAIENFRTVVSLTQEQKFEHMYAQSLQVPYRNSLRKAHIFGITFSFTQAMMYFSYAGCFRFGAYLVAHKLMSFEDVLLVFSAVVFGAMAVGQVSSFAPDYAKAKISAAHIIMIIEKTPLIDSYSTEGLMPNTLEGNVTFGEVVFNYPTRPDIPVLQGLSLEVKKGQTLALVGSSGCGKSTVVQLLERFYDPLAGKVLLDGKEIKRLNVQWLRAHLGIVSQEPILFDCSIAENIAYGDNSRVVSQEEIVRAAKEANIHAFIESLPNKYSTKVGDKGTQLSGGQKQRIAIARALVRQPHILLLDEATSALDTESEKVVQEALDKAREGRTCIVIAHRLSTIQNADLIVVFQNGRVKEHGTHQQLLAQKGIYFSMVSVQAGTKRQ

[18] = target: T1, ATP-dependent translocase ABCB1; experiment: Inhibition of P-glycoprotein in human MCF7/ADR cells assessed as increase in [3H]-DNM accumulation at 100 uM after 2 hrs relative untreated control; format: cell-based; design: Activity: scale not given: the % may be the effect or the level left; conditions: nci/adr-res
P-glycoprotein (ABCB1) = P-glycoprotein (ABCB1) (Homo sapiens, UniProt P08183); experiment: (§1) Inhibition of P-glycoprotein in human MCF7/ADR cells assessed as reduction in [3H]-DNM efflux ratio at 100 uM after 1 hr relative untreated control; format: cell-based, NCI/ADR-RES; conditions: MCF7/ADR cells (NCI/ADR-RES), probe [3H]-DNM, read-out: Activity
P-glycoprotein (ABCB1), sequence (P08183 whole entry): as above

[19] = target: T1, ATP-dependent translocase ABCB1; experiment: as §1; format: cell-based, NCI/ADR-RES; conditions: nci/adr-res, 1 h, 100 µM

SMILES: O=c1c2ccccc2sc2cc(OCC(O)CCl)cc(O)c12 (configuration not stated)
Activity (NCI/ADR-RES): inactive | C0 [1]: 44300 ng/mL | AUC(0-t) [2]: 1250 ng·h/mL | half-life [3]: 21 min | k el [4]: 0.000569 s⁻¹ | F (Rattus norvegicus): 100% | Cmax [5]: 49 ng/mL | Tmax [6]: 12.6 min | AUC(0-t) [7]: 23 ng·h/mL | half-life [8]: 23.4 min | k el [9]: 0.000539 s⁻¹ | bioavailability [10]: 0.6% | TGI (A549 [11]): 61.6% | Activity (Mus musculus [12]): 6.19% | TGI (A549 [13]): 52.6% | Activity (Mus musculus [14]): 3.52% | Survival (A549 [15]): 80% | Survival (A549 [16]): 100% | inhibition (INH) [17]: Active | Activity [18]: 707% | inhibition at 1 h, 100 µM (P-glycoprotein (ABCB1)): 70.4%

inhibition (INH) [17]: Active | inhibition (INH) [18]: Not Active | inhibition (INH) [19]: Not Active
SMILES: COc1cc(OCC(O)CCl)cc2oc3ccccc3c(=O)c12 (configuration not stated)
Activity (NCI/ADR-RES): inactive

inhibition (INH) [17]: Active
SMILES: O=c1c2ccccc2oc2cc(OCC(O)CO)cc(O)c12 (configuration not stated)

inhibition (INH) [17]: Active
SMILES: COc1cccc2c(=O)c3c(O)cc(OCC(O)CO)cc3oc12 (configuration not stated)

SMILES: O=c1c2ccccc2oc2cc(OCC3CS3)cc(OCC3CS3)c12 (configuration not stated)
inhibition (INH) [17]: Active

SMILES: O=c1c2ccccc2sc2cc(OCC(S)CCl)cc(O)c12 (configuration not stated)
inhibition (INH) [17]: Active

inhibition (INH) [17]: Active
SMILES: COc1cccc2c(=O)c3c(O)cc(OCC(O)CCl)cc3oc12 (configuration not stated)

inhibition (INH) [17]: Active | Activity [18]: 319%
SMILES: COc1ccc(CCN(C)CCCC(C#N)(c2ccc(OC)c(OC)c2)C(C)C)cc1OC (configuration not stated) [VERAPAMIL]

SMILES: COc1cccc2c(=O)c3c(OCC4CS4)cc(OCC4CS4)cc3oc12 (configuration not stated)
inhibition (INH) [17]: Active

SMILES: COc1cccc2c(=O)c3c(O)cc(OCC(S)CCl)cc3oc12 (configuration not stated)
inhibition (INH) [17]: Active

SMILES: O=c1c2ccccc2sc2cc(OCC3CS3)cc(O)c12 (configuration not stated)
inhibition (INH) [17]: Active

SMILES: COc1cccc2c(=O)c3c(O)cc(OCC4CS4)cc3oc12 (configuration not stated)
inhibition (INH) [17]: Active

inhibition (INH) [17]: Active
SMILES: O=c1c2ccccc2oc2cc(OCC(O)CCl)cc(O)c12 (configuration not stated)
